Tests used:
[1] = wn = mass fraction of the nth substance listed; details: 101 kPa, Liquid

Cn1cc[n+](C)c1.[Cl-] [1,3-dimethylimidazolium chloride]
Details	Normal melting temperature [°C]
Crystal, visual observation	126.00

Cn1cc[n+](C)c1.[Cl-] [1,3-dimethylimidazolium chloride] + O
mass density [kg/m3], [1]
Details	w2 = 0.2004	w2 = 0.3015	w2 = 0.4019	w2 = 0.5001	w2 = 0.5992	w2 = 0.7003	w2 = 0.8003	w2 = 0.898
293.15 K	1157.78	1135.29	1111.77	1089.04	1067.56	1047.52	1030.53	1014.07
298.15 K	1154.79	1132.4	1109.03	1087.14	1065.77	1045.81	1027.98	1012.2
303.15 K	1152.15	1129.93	1106.69	1084.55	1063.34	1043.7	1026.15	1010.57
308.15 K	1149.31	1127.15	1104.22	1082.68	1061.63	1041.8	1024.53	1008.86
313.15 K	1146.46	1124.33	1101.07	1080.38	1059.44	1039.52	1022.66	1007.2
318.15 K	1143.59	1121.85	1098.34	1078.58	1057.08	1037.12	1021.05	1005.65

CC#N [acetonitrile]
Details	mass density [kg/m3]
308.1 K, 101.33 kPa, Liquid, Vibrating tube method	765.98

From the NIST ThermoML archive (doi:10.1007/s10765-009-0651-x)
